# Results as given in patent publication US20110207820A1, “NOVEL CHRYSOCHROMULINA SPECIES, METHODS AND MEDIA THEREFOR, AND PRODUCTS DERIVED THEREFROM” (UNIVERSITY OF WASHINGTON, priority 2008, published 2011).
# Like-named read-outs stand apart in the source and are kept apart here.
# Experiments:
# Alga X [1] = test system: Alga X
# Protocol: The mother culture is generally about one week old and has a culture density of about 2×10̂6.
# Two experiments were run using 0, 8, 16, 32, and 64 mM NaCl salt concentrations in the Alga X culture medium. Alga cells were collected for lipid analysis at 0, 3, 6, and 9 days for each salt concentration.
# The starting culture densities were 5.00E+03 cells/ml.
# The starting culture densities were 1.00E+05 cells/ml.
# Alga X cell cultures were subjected to agitation between 0 and 100 rpm.
# A volume of about 37.6 ml of original stock was added to each starting flask, with the balance being medium to bring the cell cultures to a concentration of about 1.00E+06.
# The original stock culture was maintained in CORE1 (distilled water based medium), plus SEM, with a concentration of about 3.19E+06 cells/ml. Volumes of 34.5 ml of original stock were added to each starting flask, with the balance being medium to bring the cell cultures to a concentration of about 1.00E+05.
# The experimental AMPSO culture was maintained in a medium of Clear (human waste water), SEM, and 8 mM AMPSO pH buffer. The AMPSO plus NaHCO3 culture was maintained in a medium of Clear (human waste water), SEM, 8 mM AMPSO pH buffer, and 2 mM NaHCO3.
# [2] = test system: lipid bodies in algal cells; assay: BODIPY 505/515 vital staining of lipid bodies in live algal cells (fluorescence microscopy, cell sorter); assay type: cell-based, Alga X
# Excerpt: When added to a culture of algal cells, 1-10 micro-liters of BODIPY 505/515 stains intracellular lipid bodies within minutes. (Preparation of a BODIPY 505/515 stock solution is described below in EXAMPLE 30.) BODIPY 505/515 accumulates in lipidic compartments by a diffusion-trap mechanism. The dye has a high oil/water partition coefficient, which allows it to cross cell membranes and organelle membranes easily. When viewed under a fluorescent microscope, the background fluorescence of BODIPY 505/515 in the bath solution is slightly visible. Despite the slight background fluorescence, lipid bodies within live algal cells are intensely labeled and can be easily seen using fluorescein-type optics or confocal microscopy (see FIG. 8). […] This fluorescence arises from endogenous carotenoid and chlorophyll molecules located within the chloroplasts.
# Fluorescently labeled cells with large lipid bodies can be isolated using the fluorescent cell sorter and used to successfully seed new algal cultures. Fluorescently labeled cells have a signal/noise ratio of 50-200 above background fluorescence, depending on the BODIPY 505/515 dye concentration used. […] BODIPY 505/515 can be used to characterize the diurnal rhythm of lipid body size within algal cells or decline in lipid quantity per cell as a culture moves from one life history phase to another. […]
# [3] = test system: Single-cell and filamentous species of algae; assay: Algal growth in the continuous presence of the dye; assay type: cell-based; conditions: micromolar concentrations, for days (data not shown)
# Alga X [4] = assay: Fatty acid content and fatty acid profile of Alga X cells grown in test media (GC/MS, FAME ionization detection); assay type: cell-based, Chrysochromulina sp.
compound,measurement,setting,value
CC(=O)O [acetate],cells/mL,"Alga X [1]; acetate 100 uM, day 0",1.0E+05 cells/mL
same,cells/mL,"Alga X [1]; acetate 100 uM, day 3",1.54E+06 cells/mL
same,cells/mL,"Alga X [1]; acetate 100 uM, day 6",3.27E+06 cells/mL
same,cells/mL,"Alga X [1]; acetate 100 uM, day 9",4.87E+06 cells/mL
same,cells/mL,"Alga X [1]; acetate 200 uM, day 0",1.0E+05 cells/mL
same,cells/mL,"Alga X [1]; acetate 200 uM, day 3",1.69E+06 cells/mL
same,cells/mL,"Alga X [1]; acetate 200 uM, day 6",4.02E+06 cells/mL
same,cells/mL,"Alga X [1]; acetate 200 uM, day 9",5.02E+06 cells/mL
same,cells/mL,"Alga X [1]; acetate 400 uM, day 0",1.0E+05 cells/mL
same,cells/mL,"Alga X [1]; acetate 400 uM, day 3",1.67E+06 cells/mL
same,cells/mL,"Alga X [1]; acetate 400 uM, day 6",4.44E+06 cells/mL
same,cells/mL,"Alga X [1]; acetate 400 uM, day 9",4.70E+06 cells/mL
"CC1=CC(C)=[N+]2C1=Cc1c(C)cc(C)n1[B-]2(F)F [BODIPY 505/515, 4,4-difluoro-1,3,5,7-tetramethyl-4-bora-3a,4a-diaza-s-indacene]",time after dye addition until fluorescently-labeled lipid bodies are visible,"[2]; 1 micro-molar BODIPY 505/515, 0.05% DMSO",≤ 5 min
same,signal/noise ratio of labeled cells above background fluorescence,[2]; depending on dye concentration,50-200
same,growth of algae in continuous presence of the dye,[3],continue to grow well
[Cl-].[Na+] [NaCl],level of NaCl at which Alga X exhibits maximum growth,Alga X [1],8.0 mM
same,survival of Alga X cells,Alga X [1],did not survive
same,cell growth,Alga X [1]; 32 mM salt content,depressed
"O=P(O)(O)OC(CO)CO [BGlycerolphosphate, beta-glycerophosphate]",cells/mL,"Alga X [1]; B-glycerolphosphate 6.45 uM (control amount), day 2",6.98E+05 cells/mL
same,cells/mL,"Alga X [1]; B-glycerolphosphate 6.45 uM (control amount), day 3",1.57E+06 cells/mL
same,cells/mL,"Alga X [1]; B-glycerolphosphate 6.45 uM (control amount), day 4",2.75E+06 cells/mL
same,cells/mL,"Alga X [1]; B-glycerolphosphate 6.45 uM (control amount), day 6",3.54E+06 cells/mL
same,cells/mL,"Alga X [1]; B-glycerolphosphate 6.45 uM (control amount), day 8",4.10E+06 cells/mL
same,cells/mL,"Alga X [1]; B-glycerolphosphate 6.45 uM (control amount), day 9",4.53E+06 cells/mL
nitrogen,lipid per cell,Alga X [4]; increased nitrogen in the media,little affected
O=P([O-])(O)O.[K+] [KH2PO4],fatty acid productivity,"Alga X [4]; increasing KH2PO4, by day 6",increases slightly
O=C([O-])O.[Na+] [sodium bicarbonate],cell culture growth,"Alga X [1]; 2 mM, 4 mM or 6 mM, with AMPSO pH buffer",further enhances cell culture growth
